Assays:
Type in all cases: in vivo
[1] = test system: Pcca−/−(A138T) mouse model of propionic acidemia; experiment: Total liver CoA levels in Pcca mouse model; conditions: chow with 1000 ppm pantothenate plus 75 ppm PZ-3022 from day 21, measured at 70 days
Description: (§1) Referring to FIG. 4, a mouse model of propionic acidemia, the Pcca−/−(A138T) mouse (Guensel et al. (2013) Mol. Ther. 21: 1316-23) was fed chow or chow containing 1000 ppm pantothenate plus 75 ppm PZ-3022 beginning at day 21. At 70 days, the liver CoA levels were measured.

[2] = test system: Pcca−/−(A138T) mouse model of propionic acidemia; experiment: Liver CoA, acetyl-CoA and propionyl-CoA levels in Pcca mouse model; conditions: chow with 1000 ppm pantothenate plus 75 ppm PZ-3022 from day 21, measured at 70 days
Description: Referring to FIG. 5, a mouse model of propionic acidemia, the Pcca−/−(A138T) (mouse Guensel et al. (2013) Mol. Ther. 21: 1316-23) was fed chow or chow containing 1000 ppm pantothenate plus 75 ppm PZ-3022 beginning at day 21. At 70 days, the liver CoA, acetyl-CoA and propionyl-CoA levels were measured. The Pcca mice had lower free CoA, lower acetyl-CoA and very elevated propionyl-CoA compared to wild-type.

[3] = test system: Pcca−/−(A138T) mouse model of propionic acidemia; experiment: Plasma acyl-carnitine levels in Pcca mouse model; conditions: chow with 1000 ppm pantothenate plus 75 ppm PZ-3022 from day 21, plasma at 70 days
Description: as §1, with “6A and FIG. 6B,” for “4,”, “(mouse Guensel” for “mouse (Guensel”, “plasma was analyzed for the” for “liver CoA”, “of acyl-carnitines.” for “were measured.”
Referring to FIG. 7, the data in FIG. 5 are presented as the C3:C2 ration of plasma carnitines.

[4] = test system: Pcca−/−(A138T) mouse model of propionic acidemia; experiment: Blood ammonia levels in mouse model of propionic acidemia; conditions: chow with 225 ppm PZ-2891 plus 1000 ppm Pan for 7 days vs 1000 ppm Pan alone; p=0.0032
Description: Referring to FIG. 2, a mouse model of propionic acidemia, the Pcca−/−(A138T) (Guensel et al. (2013) Mol. Ther. 21: 1316-1323), was fed chow containing either 1000 ppm pantothenate (Pan) or 225 ppm PZ-2891 plus 1000 ppm Pan for 7 days. Blood was drawn from 6 mice per group and blood ammonia levels were determined using a GM7 Micro-Stat Analyser (Analox Instruments, www.analox.com) and the Analox Blood Ammonia Reagent kit according to the manufacturer's instructions. Statistical analysis was performed using the Students unpaired t-test and p=0.0032.

| Structure (SMILES) | liver CoA levels (total) [1] | liver acetyl-CoA [2] | liver free CoA [2] | liver propionyl-CoA [2] | C3:C2 ratio of plasma carnitines [3] | plasma acetyl-carnitine [3] | blood ammonia levels [4] |
| --- | --- | --- | --- | --- | --- | --- | --- |
| N#Cc1ccc(N2CCN(C(=O)Cc3ccc(C4CC4)cc3)CC2)nn1 [PZ-3022] | the CoA levels were elevated | elevated free CoA and acetyl-CoA | elevated free CoA | propionyl-CoA was reduced | reduced the highly elevated C3:C2 ratio | elevated acetyl-carnitine |  |
| CC(C)c1ccc(CC(=O)N2CCN(c3ccc(C#N)nn3)CC2)cc1 [PZ-2891] |  |  |  |  |  |  | Reduction of Blood Ammonia Levels |
